# Where a SMILES comes first, the peptide text is derived from it. The star is where a group is joined. Orn(α-tetramethylguanidino) = CN(C)C(=N[C@@H](CCCN)C(=O)*)N(C)C
# Tests used:
# [1] = test system: E. coli DSM 1103 (ATCC 25922); format: cell-based, Escherichia coli; details: DSM 1103, 24 h
# Protocol: (§1) MICs of P. aeruginosa strains DSM 1117 (ATCC 27853), DSM 3227 (ATCC 19429), and DSM 9644 were determined in a microdilution broth assay using 50 or 100% MHB (11.5 and 23 g/L MHB, respectively) whereas MICs of E. coli DSM 1103 (ATCC 25922) and K. pneumoniae DSM 681 (ATCC 10031) were determined in TSB (30 g/L TSB). Peptides (1 g/L in water) were serially two-fold diluted in a 96-well microtiter plate (PS, sterile, flat bottom) in 50 μL of the corresponding medium to final concentrations of 512–4 μg/mL. Bacteria were grown in nutrient broth overnight and diluted to a cell concentration of 1.5 × 10^7 cells/mL in the corresponding medium. Cell densities were determined by using the McFarland standard as reference. An aliquot (50 μL) of the cell culture was added to each well and incubated (37°C, 24 h). The OD595 was determined in a SpectraMax 340PC (Molecular Devices, Sunnyvale, USA). Additionally, MIC values were also determined for high bacteria densities (5 × 10^8 cells/mL) corresponding to the conditions used for TEM, as described above.
# [2] = test system: P. aeruginosa DSM 1117; assay: Transmission electron microscopy, morphological changes; format: cell-based, Pseudomonas aeruginosa; details: 1 h
# Protocol: (§2) Peptide-bacteria mixtures were fixed (2% glutaraldehyde, 5 mmol/L CaCl2, 10 mmol/L MgCl2 in 0.1 mol/L sodium cacodylate buffer, pH 7.4) overnight at 4°C. […] Samples were rinsed with distilled water (5 × 10 min), incubated with aqueous uranylacetate (0.5% w/v) for 1 h at 4°C, washed with distilled water (3 × 10 min), and embedded in Epon. The hardened blocks were sectioned (50 nm) on a UCT ultramicrotome (Leica, Vienna, Austria), stained with uranyl acetate and lead citrate on an AC20 system (Leica), and visualized at a Tecnai 12 electron microscope (FEI, Eindhoven, The Netherlands) at 80 kV. Morphological effects were quantified on average for 25 cells per condition.
# [3] = test system: P. aeruginosa DSM 1117 (ATCC 27853); format: cell-based, Pseudomonas aeruginosa; details: DSM 1117, 24 h
# Protocol: as §1
# [4] = test system: E. coli DSM 1103; assay: Transmission electron microscopy, morphological changes; format: cell-based, Escherichia coli; details: 1 h
# Protocol: as §2
# [5] = test system: K. pneumoniae DSM 681 (ATCC 10031); format: cell-based, Klebsiella pneumoniae; details: DSM 681, 24 h
# Protocol: as §1
structure (smiles),measurement,setting,value
"CC[C@H](C)[C@H](NC(=O)[C@H](Cc1ccc(O)cc1)NC(=O)[C@@H](NC(=O)[C@@H]1CCCN1C(=O)[C@H](CCCNC(=N)N)NC(=O)[C@H](CC(N)=O)NC(=O)[C@H](CC(N)=O)NC(=O)[C@H](CCCN)N=C(N(C)C)N(C)C)C(C)C)C(=O)N1CCC[C@H]1C(=O)N[C@@H](CCCNC(=N)N)C(=O)N1CCC[C@H]1C(=O)N[C@@H](CCCNC(=N)N)C(=O)N1CCC[C@H]1C(=O)N1CCC[C@H]1C(=O)N[C@@H](Cc1c[nH]cn1)C(=O)N1CCC[C@H]1C(=O)N[C@@H](CCCNC(=N)N)C(=O)N[C@@H](CC(C)C)C(=O)O [Api137, gu-ONNRPVYIPRPRPPHPRL-OH, reference compound] ({Orn(α-tetramethylguanidino)}-NNRPVYIPRPRPPHPRL-OH)",MIC E. coli ATCC 25922,[1],2 µg/mL
same,"MIC E. coli DSM 1103, high inoculum",[1],32 µg/mL
same,Cells spongy,[2]; 32 µg/mL,0%
same,"DNA/ribosomes relocalization: +++, extremely relocalized",[2]; 32 µg/mL,0%
same,"DNA/ribosomes relocalization: +, starting",[2]; 32 µg/mL,43%
same,"DNA/ribosomes relocalization: -, no",[2]; 32 µg/mL,40%
same,"Membrane: b, broken",[2]; 32 µg/mL,0%
same,"Membrane: i, intact",[2]; 32 µg/mL,100%
same,"Membrane: r, ruptured",[2]; 32 µg/mL,0%
same,"Ribosome clustering: +++, extremely clustered",[2]; 32 µg/mL,0%
same,"Ribosome clustering: ++, clustered",[2]; 32 µg/mL,0%
same,"Ribosome clustering: +, starting",[2]; 32 µg/mL,63%
same,"Ribosome clustering: -, no",[2]; 32 µg/mL,37%
same,Vesicle release,[2]; 32 µg/mL,43%
same,"dissociated Fragments: ++, long and thin",[2]; 32 µg/mL,0%
same,"dissociated Fragments: -, no",[2]; 32 µg/mL,87%
same,"dissociated Fragments: LV, large vesicles",[2]; 32 µg/mL,0%
same,Cells spongy,[2]; 128 µg/mL,0%
same,"DNA/ribosomes relocalization: +++, extremely relocalized",[2]; 128 µg/mL,0%
same,"DNA/ribosomes relocalization: +, starting",[2]; 128 µg/mL,37%
same,"DNA/ribosomes relocalization: -, no",[2]; 128 µg/mL,47%
same,"Membrane: b, broken",[2]; 128 µg/mL,0%
same,"Membrane: i, intact",[2]; 128 µg/mL,100%
same,"Membrane: r, ruptured",[2]; 128 µg/mL,0%
same,"Ribosome clustering: +++, extremely clustered",[2]; 128 µg/mL,0%
same,"Ribosome clustering: ++, clustered",[2]; 128 µg/mL,0%
same,"Ribosome clustering: +, starting",[2]; 128 µg/mL,57%
same,"Ribosome clustering: -, no",[2]; 128 µg/mL,43%
same,Vesicle release,[2]; 128 µg/mL,47%
same,"dissociated Fragments: ++, long and thin",[2]; 128 µg/mL,3%
same,"dissociated Fragments: +, small and thin",[2]; 128 µg/mL,10%
same,"dissociated Fragments: -, no",[2]; 128 µg/mL,87%
same,"dissociated Fragments: LV, large vesicles",[2]; 128 µg/mL,0%
same,Cells spongy,[2]; 512 µg/mL,0%
same,"DNA/ribosomes relocalization: +++, extremely relocalized",[2]; 512 µg/mL,0%
same,"DNA/ribosomes relocalization: +, starting",[2]; 512 µg/mL,40%
same,"DNA/ribosomes relocalization: -, no",[2]; 512 µg/mL,47%
same,"Membrane: b, broken",[2]; 512 µg/mL,0%
same,"Membrane: i, intact",[2]; 512 µg/mL,100%
same,"Membrane: r, ruptured",[2]; 512 µg/mL,0%
same,"Ribosome clustering: +++, extremely clustered",[2]; 512 µg/mL,0%
same,"Ribosome clustering: ++, clustered",[2]; 512 µg/mL,0%
same,"Ribosome clustering: +, starting",[2]; 512 µg/mL,30%
same,"Ribosome clustering: -, no",[2]; 512 µg/mL,70%
same,Vesicle release,[2]; 512 µg/mL,37%
same,"dissociated Fragments: ++, long and thin",[2]; 512 µg/mL,3%
same,"dissociated Fragments: +, small and thin",[2]; 512 µg/mL,0%
same,"dissociated Fragments: -, no",[2]; 512 µg/mL,97%
same,"dissociated Fragments: LV, large vesicles",[2]; 512 µg/mL,0%
same,"MIC P. aeruginosa DSM 1117, high inoculum",[3],128 µg/mL
same,"Cell: r, ruptured",[4]; 8 µg/mL,0%
same,DNA/Ribosomes relocalized,[4]; 8 µg/mL,17%
same,"Fragments: +++, long and thick",[4]; 8 µg/mL,0%
same,"Fragments: ++, long and thin",[4]; 8 µg/mL,27%
same,"Fragments: +, small and thin",[4]; 8 µg/mL,30%
same,"Fragments: -, no",[4]; 8 µg/mL,43%
same,"Fragments: LV, large vesicles",[4]; 8 µg/mL,0%
same,"Membrane: i, intact",[4]; 8 µg/mL,100%
same,"Membrane: w, wrinkled",[4]; 8 µg/mL,0%
same,Vesicle release strong,[4]; 8 µg/mL,100%
same,"Cell: r, ruptured",[4]; 32 µg/mL,0%
same,DNA/Ribosomes relocalized,[4]; 32 µg/mL,30%
same,"Fragments: +++, long and thick",[4]; 32 µg/mL,0%
same,"Fragments: ++, long and thin",[4]; 32 µg/mL,23%
same,"Fragments: +, small and thin",[4]; 32 µg/mL,40%
same,"Fragments: -, no",[4]; 32 µg/mL,37%
same,"Fragments: LV, large vesicles",[4]; 32 µg/mL,0%
same,"Membrane: i, intact",[4]; 32 µg/mL,97%
same,"Membrane: w, wrinkled",[4]; 32 µg/mL,3%
same,Vesicle release strong,[4]; 32 µg/mL,100%
same,"Cell: r, ruptured",[4]; 128 µg/mL,0%
same,DNA/Ribosomes relocalized,[4]; 128 µg/mL,0%
same,"Fragments: +++, long and thick",[4]; 128 µg/mL,0%
same,"Fragments: ++, long and thin",[4]; 128 µg/mL,42%
same,"Fragments: +, small and thin",[4]; 128 µg/mL,54%
same,"Fragments: -, no",[4]; 128 µg/mL,4%
same,"Fragments: LV, large vesicles",[4]; 128 µg/mL,0%
same,"Membrane: i, intact",[4]; 128 µg/mL,4%
same,"Membrane: w, wrinkled",[4]; 128 µg/mL,96%
same,Vesicle release weak,[4]; 128 µg/mL,35%
same,"Cell: r, ruptured",[4]; 512 µg/mL,0%
same,DNA/Ribosomes relocalized,[4]; 512 µg/mL,0%
same,"Fragments: +++, long and thick",[4]; 512 µg/mL,0%
same,"Fragments: ++, long and thin",[4]; 512 µg/mL,29%
same,"Fragments: +, small and thin",[4]; 512 µg/mL,61%
same,"Fragments: -, no",[4]; 512 µg/mL,11%
same,"Fragments: LV, large vesicles",[4]; 512 µg/mL,0%
same,"Membrane: i, intact",[4]; 512 µg/mL,32%
same,"Membrane: w, wrinkled",[4]; 512 µg/mL,68%
same,Vesicle release weak,[4]; 512 µg/mL,50%
same,MIC K. pneumoniae DSM 681,[5],16 µg/mL
